Columns and labels:
[1] = target: recombinant human DPPI (Cathepsin C) (Homo sapiens (Human), UniProt P53634); test: Inhibition of human DPPI (Cathepsin C); format: biochemical; conditions: substrate Gly-Arg-AMC
How it was run: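 Recombinant human DPPI in MES buffer pH 6.0 (5 mM DTT, 0.1% BSA); fluorogenic substrate at 50 μM final, 30 min at room temperature, stopped with 1 μM Gly-Phe-DMK. Background-subtracted fluorescence expressed as percent of vehicle control; IC50 derived.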

[2] = target: recombinant human Cathepsin K (Homo sapiens (Human), UniProt P43235); test: Inhibition of human Cathepsin K; format: biochemical; conditions: substrate Z-Gly-Pro-Arg-AMC
recombinant human Cathepsin K, sequence (P43235 115-329): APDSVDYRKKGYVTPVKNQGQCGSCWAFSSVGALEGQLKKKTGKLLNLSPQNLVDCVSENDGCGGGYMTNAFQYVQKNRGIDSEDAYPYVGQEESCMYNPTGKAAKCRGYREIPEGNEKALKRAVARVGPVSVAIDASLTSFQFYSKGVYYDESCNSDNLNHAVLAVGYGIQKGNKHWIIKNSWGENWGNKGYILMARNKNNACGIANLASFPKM
How it was run: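 Proenzyme activated in pH 3.5 sodium acetate for 30 min at room temperature. Enzyme (2 ng/μL final) preincubated 10 min with compound (0.1 nM–100 μM, 1% DMSO) in pH 5.5 acetate/EDTA/L-cysteine buffer, then reacted 60 min at room temperature with Z-Gly-Pro-Arg-AMC. Stopped with 1 μM E64; fluorescence Ex 360/Em 460 nm; IC50 from background-subtracted percent of vehicle control.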

[3] = Determination of metabolic stability with human liver microsomes; conditions: pooled human liver microsomes; for half-life at 1 μM: human, pH 7.6
Experimental: Determination of Metabolic Stability with Human Liver Microsomes
The metabolic degradation of the test compound is assayed at 37° C. with pooled human liver microsomes. The final incubation volume of 100 μl per time point contains TRIS buffer pH 7.6 (0.1 M), magnesium chloride (5 mM), microsomal protein (1 mg/ml) and the test compound at a final concentration of 1 μM. Following a short preincubation period at 37° C., the reactions are initiated by addition of beta-nicotinamide adenine dinucleotide phosphate, reduced form (NADPH, 1 mM) and terminated by transferring an aliquot into acetonitrile after different time points. Additionally, the NADPH-independent degradation is monitored in incubations without NADPH, terminated at the last time point. The [%] remaining test compound after NADPH independent incubation is reflected by the parameter c (control) (metabolic stability). The quenched incubations are pelleted by centrifugation (10,000 g, 5 min). An aliquot of the supernatant is assayed by LC-MS/MS for the amount of parent compound.
The half-life (t½ INVITRO) is determined by the slope of the semilogarithmic plot of the concentration-time profile.

recombinant human DPPI (Cathepsin C), sequence (P53634 231-394): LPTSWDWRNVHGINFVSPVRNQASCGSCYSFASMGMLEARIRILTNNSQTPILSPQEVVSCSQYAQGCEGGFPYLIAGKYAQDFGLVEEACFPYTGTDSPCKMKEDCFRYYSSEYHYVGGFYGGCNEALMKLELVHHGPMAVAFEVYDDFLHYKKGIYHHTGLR
recombinant human DPPI (Cathepsin C), sequence (P53634 395-463): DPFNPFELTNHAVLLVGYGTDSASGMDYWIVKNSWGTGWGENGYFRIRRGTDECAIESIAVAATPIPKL
recombinant human DPPI (Cathepsin C), sequence (P53634 25-134): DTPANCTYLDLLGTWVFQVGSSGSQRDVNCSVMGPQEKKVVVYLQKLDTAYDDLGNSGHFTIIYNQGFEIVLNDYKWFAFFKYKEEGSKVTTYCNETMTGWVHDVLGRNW

| Structure (SMILES) | IC50 [1] [nM] | IC50 [2] [nM] | half-life at 1 μM [3] [h] | In vitro stability in human liver microsome incubations t½ ([3]; 1 μM test compound, 37° C., NADPH) [h] |
| --- | --- | --- | --- | --- |
| CS(=O)(=O)Nc1ccc(-c2ccc(CC(C#N)NC(=O)[C@H]3N[C@@H]4CC[C@H]3C4)c(F)c2)cc1 (stereo partly shown) [Example 62] | 9.1 | 3900 | > 2.17 |  |
| CS(=O)(=O)c1cc(OCC(F)(F)F)cc(-c2ccc(C[C@@H](C#N)NC(=O)[C@H]3N[C@@H]4CC[C@H]3C4)c(F)c2)c1 [Example 276] | 14.1 | 5500 |  | 2.17 |
| N#C[C@H](Cc1ccc(-c2csc(C(=O)N3CCOCC3)c2)cc1F)NC(=O)[C@H]1N[C@@H]2CC[C@H]1C2 [Example 230] | 1.8 | 5900 | > 2.17 |  |
| N#C[C@H](Cc1ccc(-c2ccc(C(=O)N3CCOCC3)o2)cc1F)NC(=O)[C@H]1N[C@@H]2CC[C@H]1C2 [Example 288] | 2.3 | 2200 | > 2.17 |  |
| CCN1CCC(c2ccc(C[C@@H](C#N)NC(=O)[C@H]3N[C@@H]4CC[C@H]3C4)c(F)c2)CC1 [Example 201] | 20.1 | 2500 | > 2.17 |  |
| CN1CCC(Oc2ccc(C[C@@H](C#N)NC(=O)[C@H]3N[C@@H]4CC[C@H]3C4)c(F)c2)CC1 [Example 319, (1S,2S,4R)—N-[(1S)-1-cyano-2-[2-fluoro-4-[(1-methyl-4-piperidyl)oxy]phenyl]ethyl]-3-azabicyclo[2.2.1]heptane-2-carboxamide] | 17.5 | 4500 | > 2.17 |  |
| N#CC(Cc1ccc(-c2cnn(C3CCOCC3)c2)cc1F)NC(=O)[C@H]1N[C@@H]2CC[C@H]1C2 (stereo partly shown) [Example 116] | 39.1 | 7700 | > 2.17 |  |
| Cn1nc(C(F)(F)F)cc1-c1ccc(C[C@@H](C#N)NC(=O)[C@H]2N[C@@H]3CC[C@H]2C3)c(F)c1 [Example 100] | 22.3 | 8200 | > 2.17 |  |
| CN1CCN(C(=O)c2cc(-c3ccc(C[C@@H](C#N)NC(=O)[C@H]4N[C@@H]5CC[C@H]4C5)c(F)c3)cs2)CC1=O [Example 233] | 2.2 | 3000 | > 2.17 |  |
| CO[C@@H]1C[C@@H]2CN(c3ccc(C[C@@H](C#N)NC(=O)[C@H]4N[C@@H]5CC[C@H]4C5)c(F)c3)CCN2C1 [Example 269] | 9.4 | 1700 | > 2.17 |  |
| N#Cc1cc(F)c2[nH]c(=O)c3cc(C[C@@H](C#N)NC(=O)[C@H]4N[C@@H]5CC[C@H]4C5)c(F)cc3c2c1 [Example 325] | 1.3 | 2300 | > 2.17 |  |
| N#C[C@H](Cc1cc2c(=O)[nH]c3cc(F)ccc3c2cc1F)NC(=O)[C@H]1N[C@@H]2CC[C@H]1C2 [Example 323] | 0.8 | 900 | > 2.17 |  |
| CN1CCN(S(=O)(=O)c2ccc(-c3ccc(C[C@@H](C#N)NC(=O)[C@H]4N[C@@H]5CC[C@H]4C5)c(F)c3)cc2)CC1 [Example 155] | 0.8 | 1000 | 1.03 |  |
| N#CC(Cc1ccc(-c2ccc3c(c2)CNC3=O)cc1F)NC(=O)[C@H]1N[C@@H]2CC[C@H]1C2 (stereo partly shown) [Example 41] | 5.3 | 4700 | > 2.17 |  |
| Cc1cc(-c2ccc(CC(C#N)NC(=O)[C@H]3N[C@@H]4CC[C@H]3C4)c(F)c2)n[nH]1 (stereo partly shown) [Example 58] | 8.4 | 11100 | > 2.17 |  |
| N#C[C@H](Cc1ccc(-c2cnn(CC3CCOC3)c2)cc1F)NC(=O)[C@H]1N[C@@H]2CC[C@H]1C2 (stereo partly shown) [Example 21] | 3.1 | 4900 | > 2.17 |  |
| N#C[C@H](Cc1ccc(-c2ccc(S(N)(=O)=O)cc2)cc1F)NC(=O)[C@H]1N[C@H]2C[C@@H]1[C@@H]1C[C@@H]12 [Example 136] | 10.2 | 6200 | > 2.17 |  |
| CN1C(=O)Cc2ccc(-c3ccc(C[C@@H](C#N)NC(=O)[C@H]4N[C@@H]5CC[C@H]4C5)c(F)c3)cc21 [Example 2, (1S,2S,4R)—N-[(1S)-1-cyano-2-[2-fluoro-4-(1-methyl-2-oxo-indolin-6-yl)phenyl]ethyl]-3-azabicyclo[2.2.1]heptane-2-carboxamide] | 2 | 2800 | > 2.08 |  |
| N#C[C@H](Cc1ccc(-n2cc(COc3ccccc3)nn2)cc1F)NC(=O)[C@H]1N[C@@H]2CC[C@H]1C2 [Example 47] | 7.2 | 3400 | 1.4 |  |
| N#C[C@H](Cc1ccc(-c2ccc(C(=O)NC3CCOCC3)cc2)cc1F)NC(=O)[C@H]1N[C@@H]2CC[C@H]1C2 [Example 200] | 16.5 | 3300 | > 2.17 |  |
| N#C[C@H](Cc1ccc(-c2cnn(CC3CCCCO3)c2)cc1F)NC(=O)[C@H]1N[C@@H]2CC[C@H]1C2 (stereo partly shown) [Example 28] | 4.1 | 2700 | > 2.17 |  |
| N#C[C@H](Cc1cc2c(=O)[nH]c3ccccc3c2cc1F)NC(=O)[C@H]1N[C@@H]2CC[C@H]1C2 [Example 322] | 0.8 | 1100 | > 2.17 |  |

| Structure (SMILES) | IC50 [1] [nM] | IC50 [2] [nM] | half-life at 1 μM [3] [h] | In vitro stability in human liver microsome incubations t½ ([3]; 1 μM test compound, 37° C., NADPH) [h] |
| --- | --- | --- | --- | --- |
| N#CC(Cc1ccc(-c2cccc(C(N)=O)c2)cc1F)NC(=O)[C@H]1N[C@@H]2CC[C@H]1C2 (stereo partly shown) [Example 53] | 7.9 | 4100 | > 2.17 |  |
| N#C[C@H](Cc1ccc(-c2ccc(C(F)(F)F)s2)cc1F)NC(=O)[C@H]1N[C@@H]2CC[C@H]1C2 [Example 33] | 4.5 | 4800 | > 2.17 |  |
| CS(=O)(=O)c1ccc(-c2ccc(C[C@@H](C#N)NC(=O)[C@H]3N[C@@H]4CC[C@H]3C4)c(F)c2F)cc1 [Example 176] | 6.6 | 13900 | > 2.17 |  |
| N#C[C@H](Cc1ccc(-c2ccc3c(c2)CNC3=O)cc1F)NC(=O)[C@H]1N[C@H]2C[C@@H]1[C@@H]1C[C@@H]12 [Example 147] | 6.2 | 9700 | > 2.17 |  |
| CN1C(=O)Cc2ccc(-c3ccc(C[C@@H](C#N)NC(=O)[C@H]4N[C@@H]5CC[C@H]4C5)c(F)c3F)cc21 [Example 24] | 3.7 | 13300 | 1.83 |  |
| N#C[C@H](Cc1ccc([C@@H]2CCN3CCOC[C@H]3C2)cc1F)NC(=O)[C@H]1N[C@@H]2CC[C@H]1C2 [Example 283] |  | 3600 | > 2.17 |  |
| COCCn1cc(-c2ccc(CC(C#N)NC(=O)[C@H]3N[C@@H]4CC[C@H]3C4)c(F)c2)cn1 (stereo partly shown) [Example 97] |  | 7900 | > 2.17 |  |
| CN1Cc2cc(-c3ccc(C[C@@H](C#N)NC(=O)[C@H]4N[C@@H]5CC[C@H]4C5)c(F)c3)ccc2S1(=O)=O [Example 169] |  | 5200 | > 2.17 |  |
| N#C[C@H](Cc1ccc(-n2cc(C(F)(F)F)cn2)cc1F)NC(=O)[C@H]1N[C@@H]2CC[C@H]1C2 [Example 285] |  | 8700 | > 2.17 |  |
| N#C[C@H](Cc1ccc(N2CCN(C3CCOC3)CC2)cc1F)NC(=O)[C@H]1N[C@@H]2CC[C@H]1C2 (stereo partly shown) [Example 331] |  | 1500 | > 2 |  |
| Cn1c(=O)c2cc(CC(C#N)NC(=O)[C@H]3N[C@@H]4CC[C@H]3C4)ccc2c2ccc(Cl)cc21 (stereo partly drawn) [Example 305, (1S,2S,4R)—N-[2-(3-chloro-5-methyl-6-oxo-phenanthridin-8-yl)-1-cyano-ethyl]-3-azabicyclo[2.2.1]heptane-2-carboxamide] | 6.9 |  | 1.52 |  |
| N#C[C@H](Cc1ccc(-n2cccn2)cc1F)NC(=O)[C@H]1N[C@@H]2CC[C@H]1C2 [Example 180] | 7.7 |  | > 2 |  |
| CCN1CCN(c2ccc(C[C@@H](C#N)NC(=O)[C@H]3N[C@@H]4CC[C@H]3C4)c(F)c2)CC1 [Example 272] | 6.8 |  | > 2.17 |  |
| CN1CCN(C(=O)c2ccc(-c3ccc(C[C@@H](C#N)NC(=O)[C@H]4N[C@@H]5CC[C@H]4C5)c(F)c3)o2)CC1 [Example 289] | 2.5 |  | 1.83 |  |
| Cn1ccc(-c2ccc(C[C@@H](C#N)NC(=O)[C@H]3N[C@@H]4CC[C@H]3C4)c(F)c2)cc1=O [Example 255] | 10.9 |  | > 2.17 |  |
| CCNC(=O)c1ccc(-c2ccc(C[C@@H](C#N)NC(=O)[C@H]3N[C@@H]4CC[C@H]3C4)c(F)c2)cc1 [Example 184] | 8.8 |  | > 2.17 |  |
| N#Cc1cc(F)c2[nH]c(=O)c3cc(CC(C#N)NC(=O)[C@H]4N[C@@H]5CC[C@H]4C5)ccc3c2c1 (stereo partly shown) [Example 307] | 7.2 |  | > 2.17 |  |
| CNc1nc2cc(-c3ccc(C[C@@H](C#N)NC(=O)[C@H]4N[C@@H]5CC[C@H]4C5)c(F)c3)ccc2[nH]1 [Example 347] | 8.5 |  | > 2.17 |  |
| COCCn1cc(-c2ccc(C[C@@H](C#N)NC(=O)[C@H]3N[C@@H]4CC[C@H]3C4)c(F)c2)cn1 [Example 44] |  | 4000 | > 2.17 |  |
| CS(=O)(=O)c1ccc2[nH]c(=O)c3cc(CC(C#N)NC(=O)[C@H]4N[C@@H]5CC[C@H]4C5)ccc3c2c1 (stereo partly shown) [Example 313] | 13.6 |  | > 2.17 |  |
| N#CC(Cc1ccc2c(c1)c(=O)[nH]c1c(F)cccc12)NC(=O)[C@H]1N[C@@H]2CC[C@H]1C2 (stereo partly shown) [Example 308] | 8.3 |  | > 2.17 |  |
| CN(C)CCn1cc(-c2ccc(C[C@@H](C#N)NC(=O)[C@H]3N[C@@H]4CC[C@H]3C4)c(F)c2)ccc1=O [Example 342] | 1.3 |  | > 2.17 |  |
